Measurements published in ChEMBL document CHEMBL1201862, “PubChem BioAssay data set” (2004).
Calls of active or inactive are those of the source.

Key:
Cytochrome P450 2C9 = Cytochrome P450 2C9 (Homo sapiens, UniProt P11712)
[1] = biological target: T1, Histone-lysine N-methyltransferase NSD2 (Homo sapiens, UniProt O96028); type: biochemical
T1 sequence (O96028 whole entry): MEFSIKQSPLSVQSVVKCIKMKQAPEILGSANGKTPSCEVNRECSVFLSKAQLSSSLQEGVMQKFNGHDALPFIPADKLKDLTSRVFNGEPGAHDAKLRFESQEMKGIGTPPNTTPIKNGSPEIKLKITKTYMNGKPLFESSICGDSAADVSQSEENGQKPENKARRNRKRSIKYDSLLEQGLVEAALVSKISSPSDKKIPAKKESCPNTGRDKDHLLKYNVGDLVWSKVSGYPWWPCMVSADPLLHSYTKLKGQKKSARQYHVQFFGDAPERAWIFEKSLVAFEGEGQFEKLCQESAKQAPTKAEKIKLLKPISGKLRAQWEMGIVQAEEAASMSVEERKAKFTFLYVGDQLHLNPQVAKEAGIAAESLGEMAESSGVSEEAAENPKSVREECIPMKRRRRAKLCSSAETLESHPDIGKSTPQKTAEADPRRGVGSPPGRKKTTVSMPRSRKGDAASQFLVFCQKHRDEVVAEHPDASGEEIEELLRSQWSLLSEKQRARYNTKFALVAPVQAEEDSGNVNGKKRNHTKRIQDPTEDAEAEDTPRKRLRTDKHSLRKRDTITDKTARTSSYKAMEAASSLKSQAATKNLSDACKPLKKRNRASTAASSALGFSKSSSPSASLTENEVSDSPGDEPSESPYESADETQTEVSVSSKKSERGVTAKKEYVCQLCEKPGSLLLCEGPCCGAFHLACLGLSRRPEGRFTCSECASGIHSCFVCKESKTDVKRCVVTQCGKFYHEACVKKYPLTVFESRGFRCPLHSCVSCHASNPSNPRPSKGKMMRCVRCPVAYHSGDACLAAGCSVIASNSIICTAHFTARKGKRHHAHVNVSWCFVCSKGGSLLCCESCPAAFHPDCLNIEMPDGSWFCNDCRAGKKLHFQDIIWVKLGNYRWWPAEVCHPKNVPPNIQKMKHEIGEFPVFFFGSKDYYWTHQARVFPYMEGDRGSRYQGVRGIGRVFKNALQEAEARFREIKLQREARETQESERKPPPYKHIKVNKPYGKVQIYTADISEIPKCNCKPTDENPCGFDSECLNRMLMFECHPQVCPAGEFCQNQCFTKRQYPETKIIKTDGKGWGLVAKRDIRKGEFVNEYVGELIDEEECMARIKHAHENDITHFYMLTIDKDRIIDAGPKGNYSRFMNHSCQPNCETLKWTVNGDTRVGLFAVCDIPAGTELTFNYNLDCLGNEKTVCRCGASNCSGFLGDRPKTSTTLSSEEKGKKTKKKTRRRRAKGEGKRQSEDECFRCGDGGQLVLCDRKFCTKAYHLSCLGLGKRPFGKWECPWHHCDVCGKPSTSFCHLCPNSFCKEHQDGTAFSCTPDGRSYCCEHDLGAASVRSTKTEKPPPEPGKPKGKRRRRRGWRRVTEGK

[2] = biological target: Glucose-6-phosphate 1-dehydrogenase (Homo sapiens, UniProt P11413); assay: inhibition of Homo sapiens G6PD, dose series – biochemical, fluorescence, selectivity assay for P. falciparum G6PD inhibitor project, dose response (AID 504792); type: functional
[3] = alpha-synuclein stem-loop luciferase translation blockers – H4 neuroglioma cells, luminescence, confirmation (AID 1988); type: functional, cell-based
[4] = luciferase reporter signal suppression in cells – H4 neuroglioma cells, luminescence, dose response (AID 1990); type: functional, cell-based
[5] = Luminescence Cell-Based Dose Response HTS to Identify Inhibitors of 5'UTR Stem-Loop Driven Prion Protein mRNA Translation in H4 Neuroglioblastoma Cells. [Related pubchem assays: 1827 (Project Summary), 1813 (Primary HTS)]; type: functional

Chain of Glucose-6-phosphate 1-dehydrogenase (P11413 whole entry): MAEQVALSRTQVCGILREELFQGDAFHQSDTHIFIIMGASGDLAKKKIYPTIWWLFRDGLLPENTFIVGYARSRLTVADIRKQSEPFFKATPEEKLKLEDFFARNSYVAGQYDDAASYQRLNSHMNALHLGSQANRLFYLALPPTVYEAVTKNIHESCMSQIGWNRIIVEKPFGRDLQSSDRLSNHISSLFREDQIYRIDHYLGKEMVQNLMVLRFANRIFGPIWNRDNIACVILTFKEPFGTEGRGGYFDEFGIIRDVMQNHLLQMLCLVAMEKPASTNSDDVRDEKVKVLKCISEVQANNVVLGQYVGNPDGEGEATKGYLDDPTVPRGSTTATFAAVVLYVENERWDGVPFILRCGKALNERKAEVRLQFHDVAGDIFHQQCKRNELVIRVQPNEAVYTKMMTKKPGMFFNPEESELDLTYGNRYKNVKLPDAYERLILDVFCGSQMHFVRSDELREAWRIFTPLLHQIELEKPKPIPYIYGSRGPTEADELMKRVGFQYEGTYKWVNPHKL
Chain of Cytochrome P450 2C9 (P11712 whole entry): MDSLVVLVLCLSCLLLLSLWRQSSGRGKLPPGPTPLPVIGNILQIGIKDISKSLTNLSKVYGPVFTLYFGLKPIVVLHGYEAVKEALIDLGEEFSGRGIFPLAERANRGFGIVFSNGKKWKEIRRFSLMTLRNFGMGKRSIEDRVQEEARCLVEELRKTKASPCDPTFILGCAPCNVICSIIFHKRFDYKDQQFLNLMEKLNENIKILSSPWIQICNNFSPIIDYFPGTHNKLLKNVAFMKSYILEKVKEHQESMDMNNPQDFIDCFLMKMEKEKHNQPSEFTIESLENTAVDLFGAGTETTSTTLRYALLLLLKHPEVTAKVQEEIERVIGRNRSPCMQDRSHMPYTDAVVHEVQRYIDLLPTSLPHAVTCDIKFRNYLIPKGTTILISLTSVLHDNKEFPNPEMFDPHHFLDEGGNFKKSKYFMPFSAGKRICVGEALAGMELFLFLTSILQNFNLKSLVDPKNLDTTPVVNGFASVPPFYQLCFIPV

For `O=[N+]([O-])c1ccc(N2CCCC2)cc1N1CCCC1`, which AC50 (Cytochrome P450 2C9) is on record?
The AC50 was “inconclusive”.

And the AC50 [1]?
Its AC50 is > 20 µM (inactive).

For `Cc1ccc2[nH]c(SCC(=O)NC3CCCc4ccccc43)nc2c1` (configuration not stated), which IC50 [2] is on record?
The IC50 was > 80 µM (inactive).

For `CN(C)c1cccc2c1c(NC(=O)c1ccc(Cl)cc1)nn2C`, which EC50 [3] is on record?
Its EC50 is 24.2 µM (active).

What about the IC50 [2] of the same compound?
Its IC50 is > 80 µM (inactive).

What about the EC50 [4] of the same compound?
The EC50 was > 120 µM (not active).

What about the EC50 [5] of the same compound?
Its EC50 is > 120 µM (not active).
